Test results from ChEMBL document CHEMBL4376861, “Docking Finds GPCR Ligands in Dark Chemical Matter” (J Med Chem, 2020).

Legend:
Adenosine receptor A2a [1] = target: T1, Adenosine receptor A2a (Homo sapiens, UniProt P29274); experiment: Displacement of [3H]ZM241385 from adenosine A2A receptor in human HeLa cell membranes at 10 uM incubated for 30 mins by scintillation counting method relative to control
D(4) dopamine receptor = target: T2, D(4) dopamine receptor (Homo sapiens, UniProt P21917); experiment: Displacement of [3H]spiperone from human dopamine D4 receptor expressed in cell membranes incubated for 60 mins by scintillation counting method
T2 sequence (P21917 whole entry): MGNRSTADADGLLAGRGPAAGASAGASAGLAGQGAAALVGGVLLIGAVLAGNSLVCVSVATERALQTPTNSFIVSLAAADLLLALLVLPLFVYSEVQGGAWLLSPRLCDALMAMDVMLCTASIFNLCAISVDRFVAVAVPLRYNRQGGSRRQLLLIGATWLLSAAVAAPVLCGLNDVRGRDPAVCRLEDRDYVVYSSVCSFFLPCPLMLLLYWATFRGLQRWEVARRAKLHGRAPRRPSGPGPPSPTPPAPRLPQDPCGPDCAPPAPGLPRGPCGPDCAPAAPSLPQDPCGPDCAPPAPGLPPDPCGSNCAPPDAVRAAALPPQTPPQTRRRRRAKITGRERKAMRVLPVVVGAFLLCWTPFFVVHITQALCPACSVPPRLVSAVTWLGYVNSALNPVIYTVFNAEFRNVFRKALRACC

[2] = target: T3, Adenosine receptor A1 (Homo sapiens) (UniProt P30542); experiment: Displacement of [3H]DPCPX from human adenosine […] receptor expressed in […] cell membranes at 10 uM incubated for 60 mins by scintillation counting method relative to control
T3 sequence (whole entry): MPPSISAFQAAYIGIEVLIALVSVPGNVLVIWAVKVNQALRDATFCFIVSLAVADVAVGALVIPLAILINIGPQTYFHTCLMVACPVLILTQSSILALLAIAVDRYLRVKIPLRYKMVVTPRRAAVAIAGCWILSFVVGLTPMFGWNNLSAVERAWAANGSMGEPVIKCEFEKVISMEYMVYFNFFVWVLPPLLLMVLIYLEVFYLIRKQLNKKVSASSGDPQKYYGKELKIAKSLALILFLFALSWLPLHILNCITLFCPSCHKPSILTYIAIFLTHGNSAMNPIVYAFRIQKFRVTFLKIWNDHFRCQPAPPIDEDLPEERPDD

D(3) dopamine receptor [3] = target: T4, D(3) dopamine receptor (Homo sapiens, UniProt P35462); experiment: Displacement of [3H]spiperone from human dopamine D3 receptor expressed in cell membranes incubated for 60 mins by scintillation counting method
Adenosine receptor A2a [4] = target: T1, Adenosine receptor A2a; experiment: Displacement of [3H]ZM241385 from adenosine A2A receptor in human HeLa cell membranes incubated for 30 mins by scintillation counting method
[5] = target: T5, D(4) dopamine receptor (Homo sapiens) (UniProt P21917); experiment: Displacement of [3H]spiperone from human dopamine D4 receptor expressed in cell membranes at 10 uM incubated for 60 mins by scintillation counting method relative to control
T5 sequence (whole entry): T2 sequence (P21917 whole entry)

Adenosine receptor A1 = target: T6, Adenosine receptor A1 (Homo sapiens, UniProt P30542); experiment: Displacement of [3H]DPCPX from human adenosine […] receptor expressed in […] cell membranes incubated for 60 mins by scintillation counting method
T6 sequence (P30542 whole entry): T3 sequence (whole entry)

D(3) dopamine receptor [6] = target: T4, D(3) dopamine receptor; experiment: Displacement of [3H]spiperone from human dopamine D3 receptor expressed in cell membranes at 10 uM incubated for 60 mins by scintillation counting method

T1 sequence (P29274 whole entry): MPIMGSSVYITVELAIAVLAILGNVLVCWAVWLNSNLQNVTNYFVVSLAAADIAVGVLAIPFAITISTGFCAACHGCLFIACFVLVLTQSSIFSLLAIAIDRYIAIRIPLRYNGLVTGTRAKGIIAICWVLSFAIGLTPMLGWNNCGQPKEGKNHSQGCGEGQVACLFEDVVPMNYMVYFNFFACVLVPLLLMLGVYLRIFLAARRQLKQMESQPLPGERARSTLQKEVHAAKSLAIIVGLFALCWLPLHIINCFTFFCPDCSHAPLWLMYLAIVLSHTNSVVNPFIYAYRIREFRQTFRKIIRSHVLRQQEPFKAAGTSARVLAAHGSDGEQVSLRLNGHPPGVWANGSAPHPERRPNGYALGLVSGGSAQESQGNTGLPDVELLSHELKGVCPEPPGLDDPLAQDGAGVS
T4 sequence (P35462 whole entry): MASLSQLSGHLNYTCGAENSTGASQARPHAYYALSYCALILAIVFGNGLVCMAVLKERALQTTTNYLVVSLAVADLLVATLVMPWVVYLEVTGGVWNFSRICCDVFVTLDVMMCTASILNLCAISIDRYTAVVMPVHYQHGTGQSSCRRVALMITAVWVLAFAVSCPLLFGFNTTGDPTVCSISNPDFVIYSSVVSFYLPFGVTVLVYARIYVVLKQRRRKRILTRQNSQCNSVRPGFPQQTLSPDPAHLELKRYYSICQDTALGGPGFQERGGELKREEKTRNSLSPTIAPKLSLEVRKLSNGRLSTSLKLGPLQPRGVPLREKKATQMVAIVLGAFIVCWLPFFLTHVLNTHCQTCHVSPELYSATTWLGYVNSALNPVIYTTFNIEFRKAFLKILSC

| inhibition (Adenosine receptor A2a [1]) [%] | Ki (D(4) dopamine receptor) [nM] | inhibition [2] [%] | Ki (D(3) dopamine receptor [3]) [nM] | Ki (Adenosine receptor A2a [4]) [nM] | inhibition [5] [%] | Ki (Adenosine receptor A1) [nM] | inhibition (D(3) dopamine receptor [6]) [%] | Compound |
| --- | --- | --- | --- | --- | --- | --- | --- | --- |
| 13 | 550 | 13 | 1600 |  |  |  |  | Cc1cccc2cc(CNCc3ccccc3)c(Cl)nc12 |
|  |  |  |  | 130 | 7 | 36 | 4 | Nc1nc(-c2ccccc2)nn1C(=O)c1ccco1 |
|  |  |  |  | 4900 | 12 | 2200 | 6 | CCOC(=O)c1nc(N)c(=O)n(-c2ccccc2)n1 |
| 7 | 420 | 19 | 11000 |  |  |  |  | Cc1ccc(C(=O)C2CCN(CC(=O)NC3CCCC3)CC2)cc1 |
